From patent publication US11926619B2, “Certain pladienolide compounds and methods of use” (EISAI R&D MANAGEMENT CO., LTD., priority 2018, dated 2024)

Experiments:
[1] = in vivo; cited from earlier work
[2] = from C=CC[C@@](C)(CCCCC(=O)O[C@H](/C(C)=C/I)[C@@H](C)C=C)O[Si](CC)(CC)CC; rcm bond; Hoveyda-Grubbs catalyst; toluene; 4.0 mM; 50.0 °C; 2.0 h
SF3b complexes = molecular target: T1, SF3b complexes (Homo sapiens, UniProt O75533+Q7RTV0); assay: Scintillation proximity assay (SPA) with [3H]-labelled pladienolide probe; type: binding; conditions: wt SF3B1, read-out: SPA (wt SF3B1 cells) IC50
T1 construct: endogenous in cells
Summary of the method: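 SF3b complexes immunoprecipitated from nuclear extracts with anti-SF3B1 antibody on anti-mouse PVT SPA beads. Beads pre-incubated 30 min with varying PB or PB-OH, then 2.5 nM [3H]-PB added for 30 min; scintillation signal read and fit by non-linear regression.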

[3] = tested on: Panc 05.04 cells (pancreatic cancer cells; Q699H and K700E mutations in SF3B1); assay: Cell viability assay (CellTiter-Glo, 72 hr), Panc 05.04 cells; type: cell-based; conditions: Panc 05.04 cells (mutant SF3B1); for Emax: maximum achievable response in tested dose range, negative value = cellular lethality, read-out: Panc 05.04 (mt SF3B1 cells) Emax (%); for GI50: read-out: Panc 05.04 (mt SF3B1 cells), GI50
Summary of the method: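 Panc 05.04 cells treated 72 hr at 37 °C with 9 compound concentrations (0.1% DMSO), duplicate or triplicate. ATP read by CellTiter-Glo; growth inhibition/viability calculated against a time-zero plate and DMSO control growth. Emax is the maximal response over the tested range, negative values meaning lethality.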

[4] = tested on: WiDr cells (colon cancer cells; wildtype SF3B1); assay: Cell viability assay (CellTiter-Glo, 72 hr), WiDr cells; type: cell-based; conditions: Homo sapiens; WiDr cells (wildtype SF3B1); read-out: WiDr GI50
Summary of the method: (§1)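 Cells at 2000/well were exposed to 9 compound concentrations (0.1% DMSO) in duplicate or triplicate for 72 hr at 37 °C. ATP was read by CellTiter-Glo against a time-zero plate and DMSO control growth. Percent growth/viability was plotted against concentration to give Emax; negative values indicate lethality.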

[5] = tested on: WiDr-R cells (colon cancer cells; chemically-induced SF3B1 R1074H mutant); assay: Cell viability assay (CellTiter-Glo, 72 hr), resistant WiDr-R cells (counter-screen); type: cell-based; conditions: WiDr-R cells (SF3B1 R1074H mutation, resistant); read-out: WiDr-R GI50
Summary of the method: as §1

[6] = tested on: WiDr-R cells (colon cancer cells; chemically-induced SF3B1 R1074H mutant); conditions: R1074H mutation; cited from earlier work

In the case of tremelimumab, the plasma half-life [1] is given as “approximately 22 days”.

CC[Si](CC)(CC)O[C@@]1(C)CC=C[C@H](C)[C@@H](/C(C)=C/I)OC(=O)CCCC1 gave a ring closure, yield of all isomers [2] of 53%.

CC(=O)O[C@H]1/C=C/[C@H](C)[C@@H](/C(C)=C/C=C/[C@@H](C)c2ccccn2)OC(=O)C[C@H](O)CC[C@@]1(C)O gave an IC50 (SF3b complexes) of 0.0451 µM, an Emax [3] of -16.1% and a GI50 [3] of 0.538 µM. The GI50 [4] was 0.231 µM and the GI50 [5] was > 10 µM.

C/C(=C\C=C\[C@@H](C)COC(=O)N1CCCC1)[C@H]1OC(=O)C[C@H](O)CC[C@@](C)(O)[C@@H](OC(=O)N2CCN(C)CC2)/C=C/[C@@H]1C gave an IC50 (SF3b complexes) of 0.0021 µM, an Emax [3] of -90.3% and a GI50 [3] of 0.00305 µM. For the same compound, the GI50 [4] was 0.00383 µM and the GI50 [5] was > 1 µM.

CC(=O)O[C@H]1/C=C/[C@H](C)[C@@H](/C(C)=C/C=C/[C@@H](C)COC(=O)N2CCC[C@@H]2CO)OC(=O)C[C@H](O)CC[C@@]1(C)O gave an IC50 (SF3b complexes) of 0.0804 µM, an Emax [3] of -83.4% and a GI50 [3] of 0.0351 µM. The GI50 [4] was 0.0247 µM and the GI50 [5] was > 10 µM.

CC(=O)O[C@H]1/C=C/[C@H](C)[C@@H](/C(C)=C/C=C/[C@@H](C)COC(=O)N2CCC[C@@H]2C)OC(=O)C[C@H](O)CC[C@@]1(C)O gave an IC50 (SF3b complexes) of 0.0273 µM, an Emax [3] of -90% and a GI50 [3] of 0.0526 µM. For the same compound, the GI50 [4] was 0.0381 µM and the GI50 [5] was > 10 µM.

For CCC(O)C(C)C1OC1CC(C)(O)/C=C/C=C(\C)C1OC(=O)CC(O)CCC(C)(O)C(OC(=O)N2CCN(C3CCCCCC3)CC2)/C=C/C1C (stereo not shown) [Compound E7107, (8E,12E,14E)-7-((4-Cycoheptylpiperazin-1-yl)carbonyl)oxy-3,6,16,21-tetrahydroxy-6,10,12,16,20-pentamethyl-18,19-epoxytricosa-8,12,14-trien-11-olide], the “resistance of WiDr-R cells in terms of growth inhibition” value [6] is given as “resistant”.

COC[C@H]1CCCN1C(=O)OC[C@H](C)/C=C/C=C(\C)[C@H]1OC(=O)C[C@H](O)CC[C@@](C)(O)[C@@H](OC(C)=O)/C=C/[C@@H]1C gave an IC50 (SF3b complexes) of 0.0607 µM, an Emax [3] of -90.9% and a GI50 [3] of 0.0765 µM. The GI50 [4] was 0.0716 µM and the GI50 [5] was > 1 µM.

With CCN(CC)C(=O)OC[C@H](C)/C=C/C=C(\C)[C@H]1OC(=O)C[C@H](O)CC[C@@](C)(O)[C@@H](OC(C)=O)/C=C/[C@@H]1C the IC50 (SF3b complexes) was 0.0024 µM, the Emax [3] was -92.2% and the GI50 [3] was 0.025 µM. The GI50 [4] was 0.0212 µM and the GI50 [5] was > 10 µM.

C/C(=C\C=C\[C@@H](C)COC(=O)N1CCC[C@H]1C(=O)O)[C@H]1OC(=O)C[C@H](O)CC[C@@](C)(O)[C@@H](OC(=O)N2CCN(C3CCCCCC3)CC2)/C=C/[C@@H]1C showed an IC50 (SF3b complexes) of 0.0361 µM, an Emax [3] of 35% and a GI50 [3] of 2.64 µM. For the same compound, the GI50 [4] was > 1 µM and the GI50 [5] was > 1 µM.

In the case of C/C(=C\C=C\C(C)c1cccc(N2CCCC2)n1)[C@H]1OC(=O)C[C@H](O)CC[C@@](C)(O)[C@@H](OC(=O)N2CCN(C3CCCCCC3)CC2)/C=C/[C@@H]1C (stereo partly shown), the IC50 (SF3b complexes) is reported as 0.0219 µM, the Emax [3] is reported as -95.3% and the GI50 [3] is reported as 0.122 µM. The GI50 [4] was 0.32 µM and the GI50 [5] was > 1 µM.

C/C(=C\C=C\[C@@H](C)c1ccccn1)[C@H]1OC(=O)C[C@H](O)CC[C@@](C)(O)[C@@H](OC(=O)N2CCN(C3CCOCC3)CC2)/C=C/[C@@H]1C showed an IC50 (SF3b complexes) of 0.00856 µM, an Emax [3] of -87.7% and a GI50 [3] of 0.0372 µM. The GI50 [4] was 0.0531 µM and the GI50 [5] was > 1 µM.

C/C(=C\C=C\[C@@H](C)COC(=O)N1CCCC1)[C@H]1OC(=O)CCCCC[C@@H](OC(=O)N2CCN(C)CC2)/C=C/[C@@H]1C showed an IC50 (SF3b complexes) of 0.00371 µM, an Emax [3] of -90.5% and a GI50 [3] of 0.00674 µM. For the same compound, the GI50 [4] was 0.00784 µM and the GI50 [5] was 2.44 µM.

CCCNC(=O)OC[C@H](C)/C=C/C=C(\C)[C@H]1OC(=O)C[C@H](O)CC[C@@](C)(O)[C@@H](OC(C)=O)/C=C/[C@@H]1C showed an IC50 (SF3b complexes) of 0.473 µM, an Emax [3] of 40.5% and a GI50 [3] of 4.59 µM. For the same compound, the GI50 [4] was 1.94 µM and the GI50 [5] was > 10 µM.

CC[C@H](OC(C)=O)[C@@H](C)[C@H]1O[C@@H]1C[C@@](C)(O)/C=C/C=C(\C)[C@H]1OC(=O)C[C@H](O)CC[C@@](C)(O)[C@@H](OC(=O)N2CCN(C3CCCCCC3)CC2)/C=C/[C@@H]1C gave an IC50 (SF3b complexes) of 0.00585 µM, an Emax [3] of -78.6% and a GI50 [3] of 0.00241 µM. It also gave a GI50 [4] of 0.002 µM and a GI50 [5] of 0.132 µM.

Compound C/C(=C\C=C\[C@@H](C)c1ccccn1)[C@H]1OC(=O)CCCCC[C@@H](OC(=O)N2CCN(C)CC2)/C=C/[C@@H]1C has an IC50 (SF3b complexes) of 0.0079 µM, an Emax [3] of -93.5% and a GI50 [3] of 0.0751 µM. For the same compound, the GI50 [4] was 0.0671 µM and the GI50 [5] was > 10 µM.

For COC[C@@H]1CCCN1C(=O)OC[C@H](C)/C=C/C=C(\C)[C@H]1OC(=O)C[C@H](O)CC[C@@](C)(O)[C@@H](OC(=O)N2CCN(C3CCCCCC3)CC2)/C=C/[C@@H]1C, the IC50 (SF3b complexes) was 0.0168 µM, the Emax [3] was -89.1% and the GI50 [3] was 0.0119 µM. For the same compound, the GI50 [4] was 0.0291 µM and the GI50 [5] was > 1 µM.
